According to article PMC5423977, “Safety, pharmacokinetics, and pharmacodynamics of BMS-986142, a novel reversible BTK inhibitor, in healthy participants” (European Journal of Clinical Pharmacology, 2017):

Assay: Safety and tolerability (adverse events), Study 1 SAD in healthy participants
Type: in vivo, human
[1] = Study 1 SAD group, BMS-986142-treated
[2] = Study 1 SAD, all BMS-986142 doses, n = 36

## Cc1c(-c2c(F)cc(C(N)=O)c3[nH]c4c(c23)CC[C@H](C(C)(C)O)C4)cccc1-n1c(=O)c2cccc(F)c2n(C)c1=O [BMS-986142, 6-fluoro-5-(R)-(3-(S)-(8-fluoro-1-methyl-2,4-dioxo-1,2-dihydroquinazolin-3(4H)-yl)-2-methylphenyl)-2-(S)-(2-hydroxypropan-2-yl)-2,3,4,9-tetrahydro-1H-carbazole-8-carboxamide]
SAD 100 mg, n = 6
  AE: Polyuria: 1 (16.7) n (%)
  AE: Syncope: 0 n (%)
  AE: Tension headache: 1 (16.7) n (%)
  AE: Thermal burn: 0 n (%)
  AE: Toothache: 0 n (%)
  AE: Upper respiratory tract infection: 0 n (%)
  AE: Vomiting: 1 (16.7) n (%)
  Total participants with an event: 2 (33.3) n (%)
SAD 300 mg, n = 6
  AE SOC: Gastrointestinal Disorders: 1 (16.7) n (%)
  AE SOC: General disorders and administration site conditions: 0 n (%)
  AE SOC: Infections and infestations: 0 n (%)
  AE SOC: Injury, poisoning and procedural complications: 0 n (%)
  AE SOC: Musculoskeletal and connective tissue disorders: 0 n (%)
  AE SOC: Nervous system disorders: 0 n (%)
  AE SOC: Renal and urinary disorders: 0 n (%)
  AE SOC: Respiratory, thoracic and mediastinal disorders: 0 n (%)
  AE: Aphthous stomatitis: 0 n (%)
  AE: Chest pain: 0 n (%)
  AE: Contusion: 0 n (%)
  AE: Cough: 0 n (%)
  AE: Diarrhoea: 0 n (%)
  AE: Dizziness: 0 n (%)
  AE: Headache: 0 n (%)
  AE: Lip Dry: 1 (16.7) n (%)
  AE: Muscle spasms: 0 n (%)
  AE: Nausea: 0 n (%)
  AE: Paraesthesia: 0 n (%)
  AE: Polyuria: 0 n (%)
  AE: Syncope: 0 n (%)
  AE: Tension headache: 0 n (%)
  AE: Thermal burn: 0 n (%)
  AE: Toothache: 0 n (%)
  AE: Upper respiratory tract infection: 0 n (%)
  AE: Vomiting: 0 n (%)
  Total participants with an event: 1 (16.7) n (%)
SAD 900 mg, n = 6
  AE SOC: Gastrointestinal Disorders: 2 (33.3) n (%)
  AE SOC: General disorders and administration site conditions: 1 (16.7) n (%)
  AE SOC: Infections and infestations: 1 (16.7) n (%)
  AE SOC: Injury, poisoning and procedural complications: 0 n (%)
  AE SOC: Musculoskeletal and connective tissue disorders: 0 n (%)
  AE SOC: Nervous system disorders: 2 (33.3) n (%)
  AE SOC: Renal and urinary disorders: 0 n (%)
  AE SOC: Respiratory, thoracic and mediastinal disorders: 1 (16.7) n (%)
  AE: Aphthous stomatitis: 0 n (%)
  AE: Chest pain: 1 (16.7) n (%)
  AE: Contusion: 0 n (%)
  AE: Cough: 1 (16.7) n (%)
  AE: Diarrhoea: 1 (16.7) n (%)
  AE: Dizziness: 1 (16.7) n (%)
  AE: Headache: 2 (33.3) n (%)
  AE: Lip Dry: 0 n (%)
  AE: Muscle spasms: 0 n (%)
  AE: Nausea: 1 (16.7) n (%)
  AE: Paraesthesia: 1 (16.7) n (%)
  AE: Polyuria: 0 n (%)
  AE: Syncope: 0 n (%)
  AE: Tension headache: 0 n (%)
  AE: Thermal burn: 0 n (%)
  AE: Toothache: 0 n (%)
  AE: Upper respiratory tract infection: 1 (16.7) n (%)
  AE: Vomiting: 0 n (%)
  Total participants with an event: 2 (33.3) n (%)
SAD any dose, n = 36
  AE SOC: Gastrointestinal Disorders: 5 (13.9) n (%)
  AE SOC: General disorders and administration site conditions: 1 (2.8) n (%)
  AE SOC: Infections and infestations: 2 (5.6) n (%)
  AE SOC: Injury, poisoning and procedural complications: 1 (2.8) n (%)
  AE SOC: Musculoskeletal and connective tissue disorders: 1 (2.8) n (%)
  AE SOC: Nervous system disorders: 5 (13.9) n (%)
  AE SOC: Renal and urinary disorders: 1 (2.8) n (%)
  AE SOC: Respiratory, thoracic and mediastinal disorders: 1 (2.8) n (%)
  AE: Aphthous stomatitis: 1 (2.8) n (%)
  AE: Chest pain: 1 (2.8) n (%)
  AE: Contusion: 1 (2.8) n (%)
  AE: Cough: 1 (2.8) n (%)
  AE: Diarrhoea: 1 (2.8) n (%)
  AE: Dizziness: 1 (2.8) n (%)
  AE: Headache: 4 (11.1) n (%)
  AE: Lip Dry: 1 (2.8) n (%)
  AE: Muscle spasms: 1 (2.8) n (%)
  AE: Nausea: 1 (2.8) n (%)
  AE: Paraesthesia: 1 (2.8) n (%)
  AE: Polyuria: 1 (2.8) n (%)
  AE: Syncope: 0 n (%)
  AE: Tension headache: 1 (2.8) n (%)
  AE: Thermal burn: 1 (2.8) n (%)
  AE: Toothache: 0 n (%)
  AE: Upper respiratory tract infection: 2 (5.6) n (%)
  AE: Vomiting: 1 (2.8) n (%)
  Total participants with an event: 8 (22.2) n (%)
[1]
  Number of AEs reported: 22 AEs
  Participants with AEs: 8 participants
[2]
  AE: Cough: 1 (2.8) n (%)
  AE: Diarrhea: 1 (2.8) n (%)
  AE: Dizziness: 1 (2.8) n (%)
  AE: Headache/tension headache: 5 (13.9) n (%)
  AE: Nausea: 1 (2.8) n (%)
  AE: Thermal burns: 1 (2.8) n (%)
  AE: Upper respiratory tract infection: 2 (5.6) n (%)
  Subjects with AEs: 8 (22.2) n (%)
Healthy participants, alone and in combination with MTX (studies 1 and 2)
  Tolerability: generally well tolerated
